System: isolated rat epididymal adipocytes
Experiment: Glucose transport assay (2-DOG uptake)
Assay type: cell-based
Settings: for glucose transport at higher doses: rat adipocytes, 4 h

COc1ccc(Cl)cc1C(=O)NCCc1ccc(S(=O)(=O)NC(=O)NC2CCCCC2)cc1 [glyburide, reference compound]
glucose transport at higher doses: decreased

CN(C)C(=N)N=C(N)N [metformin, reference compound]
glucose transport at higher doses: remained unchanged

insulin
glucose transport (insulin at the indicated concentrations, 30 min): increased glucose transport in a dose-dependent manner
